Measurements published in patent publication US20240382400A1 (The Procter & Gamble Company, priority 2023, published 2024).
Read-outs that look alike come from different tables or passages of the source.

Legend:
[1] = pH 7.0 and 20° C.; cited from earlier work
[2] = cited from earlier work
PGE2 = PGE2 anti-inflammation assay in-vitro; assay type: cell-based; details: compared to niacinamide
[3] = acidic pKa; cited from earlier work

O=C(O)/C=C/c1ccc(O)cc1 [p-coumaric acid]
solubility in water [1]: approximately 345 mg/mL
conjugate base form ([2]; pH 3): approximately 13.4%
conjugate base form ([2]; pH 7): approximately 99.6%

Methyl niacinamide
efficacy in PGE2 anti-inflammation assay (PGE2): equivalent and/or improved efficacy to niacinamide

O=C(O)C=Cc1ccccc1 [cinnamic acid]
pKa [3]: 4.32

O=C([O-])C=Cc1ccccc1.[Na+] [Sodium Cinnamate]
pKa [3]: 4.32
